{"source": "paper PMC6117412", "about": "“Comprehensive Study of the Enzymatic Catalysis of the Electrochemical Oxygen Reduction Reaction (ORR) by Immobilized Copper Efflux Oxidase (CueO) From Escherichia coli” (Frontiers in Chemistry, 2018)", "biological_target": "T1, CueO (copper efflux oxidase) (Escherichia coli, UniProt P36649)", "T1 sequence (P36649 29-516)": "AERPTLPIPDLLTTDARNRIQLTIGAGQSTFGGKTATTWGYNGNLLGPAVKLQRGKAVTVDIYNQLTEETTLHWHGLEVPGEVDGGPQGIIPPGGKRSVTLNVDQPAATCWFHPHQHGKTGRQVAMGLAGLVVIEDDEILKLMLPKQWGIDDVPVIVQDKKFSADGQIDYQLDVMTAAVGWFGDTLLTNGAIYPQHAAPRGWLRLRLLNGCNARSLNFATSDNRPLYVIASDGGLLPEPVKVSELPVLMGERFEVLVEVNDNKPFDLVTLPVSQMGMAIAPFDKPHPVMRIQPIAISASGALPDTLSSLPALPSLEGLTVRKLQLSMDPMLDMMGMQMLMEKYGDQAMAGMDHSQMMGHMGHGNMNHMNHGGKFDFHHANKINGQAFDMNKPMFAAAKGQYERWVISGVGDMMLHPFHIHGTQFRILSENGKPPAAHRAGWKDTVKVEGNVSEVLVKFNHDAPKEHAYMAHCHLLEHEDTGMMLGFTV", "conditions": "immobilised on cysteamine-modified polycrystalline Au; O2-saturated phosphate buffer; 100-200 mM fluoride; direct electron transfer"}
{"smiles": "F", "note": "[F−, sodium fluoride]", "values": [{"measurement": "cyclic voltammetry and chronoamperometry of electrocatalytic O2 reduction", "result": "the current density decreases significantly after the addition of fluoride"}]}
